Measurements: patent US10321684B2, “Use of 9-beta-D-adenosine to increase crop production” (The Regents of the University of California, priority 2009, dated 2019)

How the values were obtained:
Type in all cases: in vivo
[1] = test system: tomato plants (cv. Supersweet 100); assay: Adenosine by irrigation: vegetative and reproductive growth of tomato plants; conditions: irrigation daily
Procedure: This example describes the increase in fruit production by tomato plants (cv. Supersweet 100), achieved via application of adenosine by irrigation. Adenosine (9-beta-D-adenosine) obtained from Sigma Chemical Co. (Catalog No. A9251) was applied in a sufficient amount of distilled water to move the material into the root zone of ‘Supersweet 100’ tomato plants. Plants receiving treatments 2 and 3 were treated once every 10 days. Plants receiving treatments 4, 5, 6, and 7 were treated daily. The total amount of cytokinin or adenosine received by plants in each treatment by the end of experiment (75 days after planting) is given in parenthesis in the Table 1-1 below. The IPA concentration of the vermicompost tea was determined by radioimmunoassay.

[2] = test system: 'Fina Sodea' Clementine mandarin trees; assay: Adenosine by foliar spray (canopy application): fruit number, yield and value of mandarin trees
Procedure: This example describes the increase in the number and yield of commercially valuable fruit of Clementine mandarin trees achieved by canopy application of adenosine. Adenosine (9-beta-D-adenosine) obtained from Sigma Chemical Co. (Catalog No. A9251) was applied (25 mg/L in 250 gallons of water per acre; 23.66 g/acre) with a 400 psi handgun sprayer one time at maximum peel thickness, which marks the end of the cell division stage of citrus fruit development, to ‘Fina Sodea’ Clementine mandarin trees.

[3] = test system: 'Hass' avocado trees bearing an on-crop; assay: Trunk injection: spring bloom (bud break) of on-crop avocado trees; conditions: for Floral (with fruit), No. of shoots per 100 nodes / Floral (w/o fruit), No. of shoots per 100 nodes / Determinate Floral, No. of shoots per 100 nodes / Indeterminate Floral, No. of shoots per 100 nodes / Floral, No. of shoots per 100 nodes: 1 g/tree trunk injection in Jan; for Floral (with fruit), No. of shoots per 100 nodes: branches with fruit; for Floral (w/o fruit), No. of shoots per 100 nodes: branches without fruit; for Determinate Floral, No. of shoots per 100 nodes / Indeterminate Floral, No. of shoots per 100 nodes / Floral, No. of shoots per 100 nodes: counted at spring bloom; for Floral, No. of shoots per 100 nodes: total floral shoots
Procedure: This example describes the use of adenosine to increase spring bud break of ‘Hass’ avocado trees to increase floral intensity and avocado production. Increased bud break was achieved via trunk injection of adenosine (9-beta-D-adenosine) obtained from Sigma Chemical Co. (Catalog No. A9251), alone or with a plant growth regulator. The following treatments were injected (1 g/tree) in mid-January into the trunk of on-crop ‘Hass’ avocado trees in a commercial orchard in Irvine, Calif.: (1) adenosine (Sigma); (2) 6-BA (Sigma); (3) GA3 (ProGibb 40%, Valent BioSciences Corp.); (4) TIBA (Sigma), and (5) TIBA plus adenosine. Each material was supplied at the rate of 1 g per tree dissolved in 50 to 60 ml distilled water using two plastic syringes per tree. There were five individual tree replicates per treatment, including (6) untreated on-crop control trees. For each tree, branches (12 inches long), 1 with fruit and 1 branch without fruit in each of the four tree quadrants, were tagged.

Row | Structure (SMILES) | # Fruit, average value per plant ([1]; total 0.35 μg by 75 days) | # Fruiting shoots, average value per plant ([1]; total 0.35 μg by 75 days) | # Leaves, average value per plant ([1]; total 0.35 μg by 75 days) | # Veg. shoots, average value per plant ([1]; total 0.35 μg by 75 days) | Fruit diameter ([1]; total 0.35 μg by 75 days) | Main Shoot (mm), average value per plant ([1]; total 0.35 μg by 75 days) | Tap Root (mm), average value per plant ([1]; total 0.35 μg by 75 days) | Floral (with fruit), No. of shoots per 100 nodes [3] | Floral (w/o fruit), No. of shoots per 100 nodes [3] | Determinate Floral, No. of shoots per 100 nodes [3] | Indeterminate Floral, No. of shoots per 100 nodes [3] | Floral, No. of shoots per 100 nodes [3] | other results
1 | Nc1ncnc2c1ncn2[C@@H]1O[C@H](CO)[C@@H](O)[C@H]1O [Adenosine, 9-beta-D-adenosine] | 15 a | 17.60 a | 111 a | 38.00 a | 24.13 a mm | 74.00 mm | 28.00 mm | 8 abc shoots per 100 nodes | 10 shoots per 100 nodes | 3 ab shoots per 100 nodes | 7 shoots per 100 nodes | 10 ab shoots per 100 nodes | effect on length of the main shoot or the tap root ([1]; total 0.35 μg by 75 days): did not significantly alter; more leaves than untreated control plants ([1]; total 0.35 μg by 75 days): 2.85 fold; net increase in the number of fruit per plant over the untreated control ([1]; total 0.35 μg by 75 days): 87.5%; increase of average size of individual tomato fruit over untreated control ([1]; total 0.35 μg by 75 days, transverse diameter): 61%; Total kg/tree, Medium ([2]; 25 mg/L once at maximum peel thickness, 3-year cumulative yield, diameter 50.81-57.15 mm): 37.00 kg/tree; net increase in total fruit number ([2]; adenosine applied at maximum peel thickness, numerical (non-significant)): 12,460 fruit/200 trees/acre/3 years; effect on fruit quality ([2]; any year of the 3-year study): did not have a negative effect; juice acid of fruit from treated trees ([2]; year three of the study, P=0.0163): significantly reduced; total soluble solids to acid ratio of the juice ([2]; year three of the study, P=0.0570): higher; number of floral shoots compared to the untreated on-crop control trees ([3]; single trunk injection in January): not significantly different
2 | C=C1C[C@]23C[C@@]1(O)CC[C@H]2[C@@]12C=C[C@H](O)[C@@](C)(C(=O)O1)[C@H]2[C@@H]3C(=O)O [GA3, gibberrillic acid] | – | – | – | – | – | – | – | 6 bc shoots per 100 nodes | 8 shoots per 100 nodes | 2 b shoots per 100 nodes | 6 shoots per 100 nodes | 7 b shoots per 100 nodes | –
3 | CC(C)=CCNc1ncnc2nc[nH]c12 [IPA, isopentenyladenine] | 10 bc | 11.60 cd | 87 c | 30.80 c | 19.92 c mm | 81.00 mm | 20.25 mm | – | – | – | – | – | # Fruit, average value per plant ([1]; total 0.035 μg by 75 days): 13 ab; # Fruiting shoots, average value per plant ([1]; total 0.035 μg by 75 days): 12.40 bc; # Leaves, average value per plant ([1]; total 0.035 μg by 75 days): 99 abc; # Veg. shoots, average value per plant ([1]; total 0.035 μg by 75 days): 30.20 c; Fruit diameter ([1]; total 0.035 μg by 75 days): 21.81 b mm; Main Shoot (mm), average value per plant ([1]; total 0.035 μg by 75 days): 73.75 mm; Tap Root (mm), average value per plant ([1]; total 0.035 μg by 75 days): 25.50 mm
4 | O=C(O)c1cc(I)cc(I)c1I [TIBA, 2,3,5-triiodobenzoic acid] | – | – | – | – | – | – | – | 11 ab shoots per 100 nodes | 8 shoots per 100 nodes | 1 b shoots per 100 nodes | 8 shoots per 100 nodes | 9 b shoots per 100 nodes | –
